From US4918064A, “Phenyl glycines for use in reducing neurotoxic injury” (G. D. Searle & Co., priority 1987, dated 1990)

Experiments:
chick embryo retina = test: In Vitro Chick Retina Assay (excitotoxic lesions by NMDA or KA); assay type: cell-based; conditions: vs. NMDA 200 μM, 30 min at 37° C.
Description: [Olney, J. W., Price, M. T., Fuller, T. A., Labruyere, J., Samson, L., Carpenter, M., Mahan, K., "The Anti-Excitotoxic Effects of Certain Anesthetics, Analgesics and Sedative-Hypnotics", Neuroscience Letters, 68, 29-34, (1986)].
Using an approach similar to that earlier described [Reif-Lehrer, L., Bergenthal, J. and Hanninen, L., "Effects of Monosodium Glutamate on Chick Embryo Retina in Culture", Invest. Ophthalmol., 14, 114-12, (1975)], 15-day-old chick embryos were decapitated and their eyes removed and cut into quadrants after excising the cornea and removing the lens, vitreous and iris. The retinal quadrants were then gently separated from the pigment epithelium and incubated for 30 minutes at 37° C. in a standard balanced salt solution (BSS) to which test compounds, either excitatory amino acid agonists or potential antagonists or both, were added in various concentrations. As described elsewhere [Olney, J. W., Price, M. T., Samson, L. and Labruyere, J., "The Role of Specific Ions in Glutamate Neurotoxicity". Neurosci. […]

[1] = target: Quis (quisqualate) receptor; test: [3H]AMPA (QUIS) receptor binding assay, synaptic plasma membranes; conditions: [3H]AMPA 10 nM, 100 mM KSCN, 0-4° C., 10 min
Experimental: Synaptic plasma membranes (SPM) were prepared as previously described [Monahan, J. B. and Michel, J., "Identification and Characterization of an N-methyl-D-aspartate-specific L[^3 H]glutamate Recognition Site in Synaptic Plasma Membranes, J. Neurochem., 48, 1699-1708 (1987)]. The SPM were stored at a concentration of 10-15 mg/ml in 0.32M sucrose, 0.5 mM EDTA, 1 mM MgSO4, 5 mM Tris/SO4, pH 7.4, under liquid nitrogen. The identity and purity of the subcellular fractions were confirmed by both electron microscopy and marker enzymes. Protein concentrations were determined by using a modification of the method of Lowry [Ohnishi, S. T. and Barr, J. K., "A Simplified Method of Quantitating Proteins Using the Biuret and Phenol Reagents", Anal. Biochem., 86, 193-197 (1978)].
The SPM were treated identically for the [^3 H]AMPA (QUIS), [^3 H]kainate and sodium-dependent L-[^3 H]-glumatate binding assays. The SPM were thawed at room temperature, diluted twenty-fold with 50 mM Tris/acetate, pH 7.4, incubated at 37° C. for 30 minutes, and centrifuged at 100,000 g for 15 minutes. The dilution, incubation, and centrifugation was repeated a total of three times.
The basic procedure for the receptor subclass binding assays was similar. This general method involved adding the radioligand (12.5 nM L-[^3 H]glutamate; 0.5 nM [^3 H]kainate or 10 nM [^3 H]AMPA) to the appropriate concentration of the test compound and initiating the assay by the addition of ice cold synaptic plasma membranes (0.2-0.45 mg). The binding assays were performed in 1.5 mL centrifuge tubes with the total volume adjusted to 1.0 mL. .Additions of test compounds were made in 50 mM Tris/acetate, pH 7.4 and incubations were carried out at 0°-4° C. The incubation time for the NMDA and the AMPA binding assays was 10 minutes, for the kainate binding assay 60 minutes and for the sodium-dependent glutamate binding assay 15 minutes. The AMPA binding assay contained 100 mM KSCN and the sodium-dependent glutamate binding assay contained 150 mM sodium acetate in addition to the previously described reagents.
To terminate the incubation, the samples were centrifuged for 15 minutes at 12,000 g and 4° C. in a Beckman Microfuge 12. The supernatant was aspirated and the pelleted membranes dissolved in Beckman BTS-450 tissue solubilizer for a minimum of 6 hours at room temperature. Beckman MP scintillation cocktail containing 7 mL/1 acetic acid was then added and the samples counted on a Beckman LS 5800 or 3801 liquid scintillation counter with automatic corrections for quenching and counting efficiency.
Nonspecific binding was defined as the residual binding in the presence of either excess L-glutamate (0.1-0.4 mM), kainate (0.01 mM), or NMDA (0.5 mM), and was 15-25% of the total binding in the NMDA binding assay, 19-27% in the AMPA binding assay, 20-30% in the kainate binding assay and 10-15% in the sodium-dependent binding assay. Radioligand binding to the synaptic plasma membranes was analyzed using Scatchard and Hill transformations and the Ki values of the compounds determined using logit-log transformations. Calculations and regression analysis were performed using templates developed for Lotus 1, 2, 3 as previously described [Pullan, L. M. "Automated Radioligand Receptor Binding Analysis with Templates for Lotus", Computer Appln. Biosci., 3 131 (1987)]. Binding results are reported in Table II for example compounds of the invention. […]

**Q.** For NC(C(=O)O)c1ccc(CP(=O)(O)O)cc1 (centres unmarked) [Example VI, 4-(Phosphonomethyl)phenylglycine], which “concentration for full antagonism against NMDA (complete prevention of toxic activity)” value (chick embryo retina) is on record?
**A.** 50 µM

**Q.** What about the Ki [1] of the same molecule?
**A.** > 300 µM
